The results in this text go back to ChEMBL document CHEMBL1201862, “PubChem BioAssay data set” (2004).

Calls of active or inactive are those of the source.

Test [1] in a line: fluconazole-exposed Candida albicans growth modulators – fluorescence, retest, confirmation (AID 2467). The format is functional, cell-based.
Another test addresses T1, Exodeoxyribonuclease V (Escherichia coli (strain K12), UniProt P04993+P07648+P08394).
T1 sequence (P04993 whole entry): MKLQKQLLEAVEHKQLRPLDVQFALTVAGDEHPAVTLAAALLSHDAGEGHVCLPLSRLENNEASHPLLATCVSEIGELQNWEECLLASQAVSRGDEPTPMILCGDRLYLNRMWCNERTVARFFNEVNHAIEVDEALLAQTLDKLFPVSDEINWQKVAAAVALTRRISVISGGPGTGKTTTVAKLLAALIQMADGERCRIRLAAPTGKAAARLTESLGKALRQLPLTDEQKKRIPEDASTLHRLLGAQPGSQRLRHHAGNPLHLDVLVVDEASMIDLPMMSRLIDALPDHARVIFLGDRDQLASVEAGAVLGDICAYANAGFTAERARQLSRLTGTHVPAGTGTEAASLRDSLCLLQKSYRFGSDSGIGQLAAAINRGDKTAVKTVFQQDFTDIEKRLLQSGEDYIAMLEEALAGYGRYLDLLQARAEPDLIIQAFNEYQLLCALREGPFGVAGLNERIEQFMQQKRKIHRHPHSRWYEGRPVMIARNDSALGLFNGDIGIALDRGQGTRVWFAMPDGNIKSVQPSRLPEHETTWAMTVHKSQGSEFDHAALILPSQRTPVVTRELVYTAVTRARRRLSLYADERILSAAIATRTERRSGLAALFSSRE
T1 sequence (P07648 whole entry): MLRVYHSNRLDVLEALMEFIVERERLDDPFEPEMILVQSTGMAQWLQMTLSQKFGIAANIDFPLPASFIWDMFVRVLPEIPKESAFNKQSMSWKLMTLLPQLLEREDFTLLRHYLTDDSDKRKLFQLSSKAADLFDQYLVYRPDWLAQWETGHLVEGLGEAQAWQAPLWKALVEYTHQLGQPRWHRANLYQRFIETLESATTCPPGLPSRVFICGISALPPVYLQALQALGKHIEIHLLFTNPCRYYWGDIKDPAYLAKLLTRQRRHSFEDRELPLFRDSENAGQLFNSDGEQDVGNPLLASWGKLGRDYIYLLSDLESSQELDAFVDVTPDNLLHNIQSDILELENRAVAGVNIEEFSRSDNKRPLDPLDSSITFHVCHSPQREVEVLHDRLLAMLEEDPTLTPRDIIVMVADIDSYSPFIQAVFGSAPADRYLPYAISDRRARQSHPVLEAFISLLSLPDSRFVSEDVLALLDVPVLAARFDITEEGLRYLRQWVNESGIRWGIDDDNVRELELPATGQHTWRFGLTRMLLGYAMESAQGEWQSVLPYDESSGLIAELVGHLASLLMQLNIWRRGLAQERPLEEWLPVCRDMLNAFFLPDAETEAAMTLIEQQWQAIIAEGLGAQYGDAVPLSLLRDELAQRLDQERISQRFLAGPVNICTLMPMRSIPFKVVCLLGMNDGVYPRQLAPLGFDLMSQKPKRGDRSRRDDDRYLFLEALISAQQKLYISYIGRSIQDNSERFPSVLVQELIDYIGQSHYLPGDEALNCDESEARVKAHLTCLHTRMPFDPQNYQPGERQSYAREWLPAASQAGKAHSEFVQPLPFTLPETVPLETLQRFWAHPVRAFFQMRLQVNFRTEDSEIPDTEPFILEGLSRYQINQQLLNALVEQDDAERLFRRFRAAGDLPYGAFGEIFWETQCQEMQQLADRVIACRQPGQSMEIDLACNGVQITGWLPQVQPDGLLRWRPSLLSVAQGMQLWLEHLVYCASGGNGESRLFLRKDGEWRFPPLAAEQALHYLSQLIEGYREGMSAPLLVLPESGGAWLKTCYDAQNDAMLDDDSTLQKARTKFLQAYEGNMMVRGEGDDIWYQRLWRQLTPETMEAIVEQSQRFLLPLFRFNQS
T1 sequence (P08394 whole entry): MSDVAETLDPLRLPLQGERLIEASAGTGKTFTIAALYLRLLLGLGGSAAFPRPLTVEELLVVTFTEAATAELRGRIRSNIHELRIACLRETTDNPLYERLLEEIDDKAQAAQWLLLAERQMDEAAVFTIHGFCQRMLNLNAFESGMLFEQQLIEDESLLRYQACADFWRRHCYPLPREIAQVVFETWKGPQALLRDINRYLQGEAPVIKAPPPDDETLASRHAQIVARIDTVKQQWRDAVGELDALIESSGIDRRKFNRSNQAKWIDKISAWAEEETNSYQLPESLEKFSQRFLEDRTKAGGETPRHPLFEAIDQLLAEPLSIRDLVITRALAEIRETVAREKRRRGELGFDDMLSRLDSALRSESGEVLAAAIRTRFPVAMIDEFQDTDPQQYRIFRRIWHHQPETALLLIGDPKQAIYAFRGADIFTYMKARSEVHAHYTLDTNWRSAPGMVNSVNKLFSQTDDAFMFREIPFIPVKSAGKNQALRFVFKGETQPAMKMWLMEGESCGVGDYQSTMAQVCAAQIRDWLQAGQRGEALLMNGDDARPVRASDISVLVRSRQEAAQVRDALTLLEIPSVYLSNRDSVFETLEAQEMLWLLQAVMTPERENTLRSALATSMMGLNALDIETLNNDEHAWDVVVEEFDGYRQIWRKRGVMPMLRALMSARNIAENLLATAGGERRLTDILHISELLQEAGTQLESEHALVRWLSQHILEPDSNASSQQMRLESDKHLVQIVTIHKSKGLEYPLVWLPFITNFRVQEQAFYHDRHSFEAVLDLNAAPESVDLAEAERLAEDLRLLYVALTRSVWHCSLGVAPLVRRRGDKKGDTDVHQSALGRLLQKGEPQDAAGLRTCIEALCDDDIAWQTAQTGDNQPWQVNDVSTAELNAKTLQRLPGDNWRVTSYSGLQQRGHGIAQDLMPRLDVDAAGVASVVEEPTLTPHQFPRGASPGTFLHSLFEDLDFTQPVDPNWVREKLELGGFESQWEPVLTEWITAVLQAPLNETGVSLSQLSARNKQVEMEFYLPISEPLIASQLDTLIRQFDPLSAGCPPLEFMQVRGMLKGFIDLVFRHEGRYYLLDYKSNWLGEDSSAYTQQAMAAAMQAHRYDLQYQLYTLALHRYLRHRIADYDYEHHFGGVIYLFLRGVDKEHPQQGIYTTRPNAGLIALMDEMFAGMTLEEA
The test is described as follows: RecBCD inhibition via phage-restricted bacterial growth – absorbance, V66 E. coli, mutant T4 phage, counter-screen for AddAB inhibitor project, dose response (AID 492957). The format is functional, cell-based, Escherichia coli str. K-12 substr. MG1655.

As to `O=C(Nc1cccc(NC(=O)c2ccccc2Cl)c1)c1ccc([N+](=O)[O-])o1`, the 50% effective concentration (EC50) in test [1] is 2.84 µM (active). The IC50 at Exodeoxyribonuclease V was > 119 µM (inactive).

As for `Cn1c(O)c(/C=N/NC(=O)c2cc3ccccc3cc2O)c2ccccc21`, in test [1], the EC50 is 2.97 µM (active). Moreover, the IC50 at Exodeoxyribonuclease V was > 119 µM (inactive).

In general, EC50 refers to the concentration at which the effect is half-maximal. One may read the IC50 as the concentration that inhibits the measured activity by half.
